Data reported in US5608095A, “Alkyl-4-silyl-phenols and esters thereof as antiatherosclerotic agents” (Hoechst Marion Roussel, Inc., priority 1996, dated 1997).
Where two headings read alike, the source gives them in different places.

Legend:
[1] = test system: oxidation of serum lipids; assay: TBARS assay, rat serum; assay type: in vivo, male Sprague-Dawley rats; conditions: po, 96 h, read-out: TBARS, percent of control; for response vs control in vivo at 0.1 %: diet 0.1%
From the text: (§1) A typical experiment consisted of 4-6 groups of rats (N=5 per group) with 1 group being a control which received no MDL compound and the other groups being treated with 0.3% MDL compound. Some of the compounds were either repeated at 0.3% or evaluated again at the lower dose of 0.1%. Male Sprague-Dawley rats, 50-100 g, (Harlan Laboratories, Indianapolis, Ind.) were housed in groups of 5, fed ad libitum water and Purina Rodent chow (#5002) with or without MDL compound as a dietary admixture for 4 days. Dietary admixtures (0.3%) were made by mixing 1.2 grams of an MDL compound with 400 grams of Purina rodent chow (#5002). The MDL compound was mixed with approximately 50 grams of food using a mortar and pestle. This was added to the remainder of the food and mixed for 3 hours on a rotary mixer. In the morning of day 5, non-fasted rats were anesthetized with carbon dioxide, and blood was collected by cardiac puncture. Rats were sacrificed by cervical dislocation. Body weights and liver weights were recorded in grams. Food consumption was recorded as grams.cndot.day^-1.cndot.rat^-1. Deaths were recorded as mortality. Aliquots of fresh serum were used for clinical chemistries, thiobarbituric acid reactive substances (TBARS) and conjugated diene measurements. Aliquots of serum (~0.5mL) and whole livers were frozen at -20° C. for compound and metabolite concentration determination at a later time.
In this assay the oxidation of serum lipids is initiated with CuSO4, resulting in the formation of aldehydes, such as malondialdehyde (MDA). Upon incubation with thiobarbituric acid, the absorbance of the aldehydes can be detected at 530-540 nm. As stated in the previous example, TBARS values which are lower than control serum values indicate the relative ability of a test compound to inhibit the oxidation of lipids in a sample. TBARS were measured as follows: 100 μL of serum were mixed with 400 μL of a 5 mmol CuSO4 solution and incubated at 37° C. for 3 hr. The reactions were stopped by addition of 1.0 mL of 20% trichloroacetic acid. Then 1.0 mL of 0.67% thiobarbituric acid in 0.05N sodium hydroxide was added, mixed, and the samples incubated for 30 min at 90° C. Samples were centrifuged briefly to pellet undissolved material, and the supernatants were transferred to a 96-well microtiter plate. Absorbances were measured at 540 nm using a Biotek model EL311 microplate reader. The nmoles of MDA produced were calculated from a standard curve of 0 to 10 nmoles of MDA prepared from malonaldehyde bis(dimethylacetal). Serum samples from treated rats were compared to serum samples from control rats that received no MDL compound.

[2] = Animal parameters (food, body weight, liver weight, mortality) in rats; assay type: in vivo, male Sprague-Dawley rats; conditions: 4 days; for mortality at 96 h: in vivo, po, read-out: mortality (deaths per group); for mortality at 96 h / body wt., percent of control / lw/bw (liver weight/body weight), percent of control: rat
From the text: as §1

[3] = HPLC quantitation of compound and metabolite concentration in rat serum and liver; assay type: in vivo, male Sprague-Dawley rats; conditions: 4 days; for concentration at 96 h: po
From the text: as §1
Serum and liver concentrations of parent compound and the metabolites, bisphenol and diphenoquinone, were determined by reverse phase HPLC using a Waters 990 Powerline system. Livers (1 gram samples) were homogenized with 5.0 mL PBS, pH 7.4, using a Polytron tissue homogenizer at setting 5 for 20-30 seconds. Serum or liver homogenates were extracted as follows: 100μL of either serum or homogenate were added to 2.0 mL diethyl ether:ethanol (3:1) while vortexing the tube. The sample tubes were capped and centrifuged for 10 min at 5° C. at 3500 rpm in a Beckman GPKR centrifuge with a GH 3.7 rotor. The supernatants were transferred to clean tubes and dried under N2. Samples were reconstituted with 200 μL of acetonitrile:hexane:0.1M ammonium acetate (90:6.5:3.5, by vol.). Then, 100 μL were injected onto a Waters Deltapak C18-300 Å column, and eluted with an 83% acetonitrile:17% water mobile phase at a flow rate of 1.5 mL/min. Absorbances at the wavelengths of 240, 254, and 420 nm were recorded. Compound concentrations were calculated from known quantities of authentic parent compounds after correction for recovery; the range of recovery from spiked samples was 40 to 100%. The lowest detectable limit for this class of compounds was ~0.5 μg/mL. […]. Concentrations were calculated as μg/mL of serum and μg/g of liver.

[4] = test system: oxidation of serum lipids; assay: TBARS assay, serum of cholesterol-fed rabbits; assay type: in vivo, female New Zealand White rabbits; conditions: Oryctolagus cuniculus, po, rabbit serum, read-out: TBARS, percent of control; for response vs control in vivo at 0.4 %: 168 h, diet 0.4%, 7 days
Protocol: Five independent experiments were performed in the following manner. […] Female New Zealand White rabbits (Hazelton, ~2.0-2.3 kg) were fed 0.2% cholesterol enriched rabbit chow (Purina #5322) with or without 0.4% MDL compound (except, MDL 108,804 at 0.26% and MDL 103,491 repeated at 0.6%). The MDL compounds were solubilized in 100% ethanol. MDL 108,208 was not soluble in 100% ethanol, but it was soluble in diethyl ether:ethanol (3:2 by volume). The chow was sprayed with the MDL mixtures and allowed to dry overnight in a chemical fume hood. Control chow was sprayed with ethanol. Rabbits were fed 100 grams food per day for 7 days (0.6% MDL 103,491 were fed for 14 days); water was available ad libitum. On day 7, rabbits (fasted overnight) were bled (~2 mL) from marginal ear vein; 0.6% MDL 103,491 treated rabbits were tested on day 14. They were euthanized by carbon dioxide overdose. The total body and liver weights were recorded in grams. Food consumption was recorded as grams.cndot.day^-1 .cndot.rabbit^-1. Aliquots of fresh serum were used for clinical chemistries, lipoprotein cholesterol determination, thiobarbituric acid reactive substances (TBARS) and compound and metabolite concentrations in serum. Livers (~5 gram aliquots) were frozen at -20° C. for compound and metabolite concentration determination at a later time.
TBARS are a qualitative indication of the oxidation of lipids in a sample. In this assay the oxidation of serum lipids is initiated with CuSO4, resulting in the formation of aldehydes, such as malondialdehyde (MDA). Upon incubation with thiobarbituric acid, the absorbance of the aldehydes can be detected at 530-540 nm. TBARS values which are lower than control serum values indicate the relative ability of a compound to inhibit the oxidation. TBARS were measured as follows: 50 μL of serum were mixed with 50 μL of 0.9% saline and 400 μL of a 5 mM CuSO4 solution and incubated at 37° C. for 5 hr. The reactions were stopped by addition of 1.0 mL of 20% trichloroacetic acid. Then 1.0 mL of 0.67% thiobarbituric acid in 0.05N sodium hydroxide was added, mixed, and the samples incubated for 30 min at 90° C. Samples were centrifuged briefly to pellet undissolved material, and the supernatants were transferred to a 96-well microtiter plate. Absorbances were measured at 540 nm using a Biotek model EL311 microplate reader. The nmoles of MDA produced were calculated from a standard curve of 0 to 10 nmoles of MDA prepared from malonaldehyde bis(dimethylacetal). Serum samples from treated rabbits were compared to serum samples from control rabbits that received no MDL compound.

[5] = rat liver, diet 0.3%, read-out: Liver Parent = parent compound concentration
[6] = rat serum, diet 0.3%, read-out: Serum Parent = parent compound concentration

For CC(C)(C)c1cc(OC[Si](C)(C)c2ccccc2)cc(C(C)(C)C)c1OC(=O)CCC(=O)O [MDL 103,076, 2,6-Di-t-butyl-4-[(dimethylphenylsilyl)methyloxy]phenol succinic acid ester], the response vs control in vivo at 0.3 % ([1]; Rattus norvegicus) was 107%, the “food (grams eaten per day per rat), percent of control” value ([2]; diet 0.3%) was 93% and the mortality at 96 h ([2]; diet 0.3%) was 0%. For the same compound, the “body wt., percent of control” value ([2]; diet 0.3%) was 105%, the “lw/bw (liver weight/body weight), percent of control” value ([2]; diet 0.3%) was 110% and the “Liver Parent = parent compound concentration” value ([3]; rat liver, diet 0.3%) was 0 µg/g. The “Serum Parent = parent compound concentration” value ([3]; rat serum, diet 0.3%) was 0 µg/mL.

In the case of CC(C)(C)c1cc(SC[Si](C)(C)c2ccccc2)cc(C(C)(C)C)c1OC(=O)CCC(=O)O [MDL 103,141, 2,6-Di-t-butyl-4-[(dimethylphenylsilyl)methylthio]phenol sucinic acid ester], the response vs control in vivo at 0.3 % ([1]; Rattus norvegicus) is reported as 113%, the “food (grams eaten per day per rat), percent of control” value ([2]; diet 0.3%) is reported as 87% and the mortality at 96 h ([2]; diet 0.3%) is reported as 0%. The “body wt., percent of control” value ([2]; diet 0.3%) was 91%, the “lw/bw (liver weight/body weight), percent of control” value ([2]; diet 0.3%) was 96% and the “Liver Parent = parent compound concentration” value ([3]; rat liver, diet 0.3%) was 0 µg/g. The “Serum Parent = parent compound concentration” value ([3]; rat serum, diet 0.3%) was 0 µg/mL.

With CC(=O)Oc1c(C(C)(C)C)cc(OC[Si](C)(C)c2ccccc2)cc1C(C)(C)C [MDL 103,377, 2,6-Di-t-butyl-4-[(dimethylphenylsilyl)methyloxy]phenol acetic acid ester] the response vs control in vivo at 0.3 % ([1]; rat serum, diet 0.3%, 4 days) was 71%, the “food (grams eaten per day per rat), percent of control” value ([2]; diet 0.3%) was 82% and the mortality at 96 h ([2]; diet 0.3%) was 0%. The “body wt., percent of control” value ([2]; diet 0.3%) was 97%, the “lw/bw (liver weight/body weight), percent of control” value ([2]; diet 0.3%) was 105% and the concentration at 96 h [3, 5] was 22200 ng/g. It also gave a concentration at 96 h [3, 6] of 7720 ng/mL.

CC(C)(C)c1cc(OC[Si](C)(C)c2ccccc2)ccc1O [MDL 103,491, 2-t-Butyl-4-[(dimethylphenylsilyl)methyloxy]phenol] gave a response vs control in vivo at 0.4 % [4] of 32%, a response vs control in vivo at 0.6 % ([4]; 336 h, diet 0.6%, 14 days) of 18% and a response vs control in vivo at 0.1 % ([1]; rat serum, 4 days) of 70%. For the same compound, the response vs control in vivo at 0.3 % ([1]; rat serum, diet 0.3%, 4 days) was 34%, the “food (grams eaten per day per rat), percent of control” value ([2]; diet 0.1%) was 92% and the “food (grams eaten per day per rat), percent of control” value ([2]; diet 0.3%) was 89%. The mortality at 96 h ([2]; diet 0.1%) was 0%, the mortality at 96 h ([2]; diet 0.3%) was 0% and the “body wt., percent of control” value ([2]; diet 0.1%) was 95%. The “lw/bw (liver weight/body weight), percent of control” value ([2]; diet 0.1%) was 106%, the “body wt., percent of control” value ([2]; diet 0.3%) was 100% and the “lw/bw (liver weight/body weight), percent of control” value ([2]; diet 0.3%) was 130%. The concentration at 96 h [3, 6] was 3000 ng/mL, the “Liver Parent = parent compound concentration” value ([3]; rat liver, diet 0.1%) was 0 µg/g and the “Liver Parent = parent compound concentration” value ([3]; rat liver, diet 0.3%) was 0 µg/g. The “Serum Parent = parent compound concentration” value ([3]; rat serum, diet 0.1%) was 0 µg/mL.

With CN(C)c1ccc([Si](C)(C)COc2cc(C(C)(C)C)c(O)c(C(C)(C)C)c2)cc1 [MDL 104,556, 2,6-Di-t-butyl-4-[(4-N,N-dimethylaminophenyldimethylsilyl)methyloxy]phenol] the response vs control in vivo at 0.4 % [4] was 70%, the response vs control in vivo at 0.1 % ([1]; rat serum, 4 days) was 61% and the response vs control in vivo at 0.3 % ([1]; rat serum, diet 0.3%, 4 days) was 34%. The “food (grams eaten per day per rat), percent of control” value ([2]; diet 0.1%) was 102%, the “food (grams eaten per day per rat), percent of control” value ([2]; diet 0.3%) was 68% and the mortality at 96 h ([2]; diet 0.1%) was 0%. The mortality at 96 h ([2]; diet 0.3%) was 0%, the “body wt., percent of control” value ([2]; diet 0.1%) was 103% and the “lw/bw (liver weight/body weight), percent of control” value ([2]; diet 0.1%) was 106%. The “body wt., percent of control” value ([2]; diet 0.3%) was 87%, the “lw/bw (liver weight/body weight), percent of control” value ([2]; diet 0.3%) was 120% and the concentration at 96 h ([3]; rat liver, diet 0.1%, read-out: Liver Parent = parent compound concentration) was 38700 ng/g. It also gave a concentration at 96 h [3, 5] of 60300 ng/g, a concentration at 96 h ([3]; rat serum, diet 0.1%, read-out: Serum Parent = parent compound concentration) of 9200 ng/mL and a concentration at 96 h [3, 6] of 16300 ng/mL.

With CC(C)(C)c1cc(OC[Si](C)(c2ccccc2)c2ccccc2)cc(C(C)(C)C)c1O [MDL 104,599, 2,6-Di-t-butyl-4-[(diphenylmethylsilyl)methloxy]phenol] the response vs control in vivo at 0.4 % [4] was 79%, the response vs control in vivo at 0.3 % ([1]; rat serum, diet 0.3%, 4 days) was 34% and the “food (grams eaten per day per rat), percent of control” value ([2]; diet 0.3%) was 103%. The mortality at 96 h ([2]; diet 0.3%) was 0%, the “body wt., percent of control” value ([2]; diet 0.3%) was 93% and the “lw/bw (liver weight/body weight), percent of control” value ([2]; diet 0.3%) was 107%. The concentration at 96 h [3, 5] was 44900 ng/g and the concentration at 96 h [3, 6] was 28300 ng/mL.

For Cc1cc(OC[Si](C)(C)c2ccccc2)c(C)c(C)c1O [MDL 105,314, 2,3,6-Trimethyl-4-[(dimethylphenylsdilyl)methloxy]phenol], the response vs control in vivo at 0.3 % ([1]; Rattus norvegicus) was 85%, the “food (grams eaten per day per rat), percent of control” value ([2]; diet 0.3%) was 109% and the mortality at 96 h ([2]; diet 0.3%) was 0%. For the same compound, the “body wt., percent of control” value ([2]; diet 0.3%) was 111%, the “lw/bw (liver weight/body weight), percent of control” value ([2]; diet 0.3%) was 118% and the “Liver Parent = parent compound concentration” value ([3]; rat liver, diet 0.3%) was 0.0 µg/g. The “Serum Parent = parent compound concentration” value ([3]; rat serum, diet 0.3%) was 0.0 µg/mL.
